Results: US8466678B2, “Method and apparatus for enhanced in vivo MRI imaging” (Battelle Memorial Institute, priority 2009, dated 2013)

Key:
[1] = Body weight and animal welfare after bleomycin instillation; format: in vivo, Sprague-Dawley rats
Source text: Animal handling and treatment procedures followed a protocol approved by the Institutional Animal Care and Use Committee. A total of 18 male Sprague-Dawley rats weighing 196±8 g were used. They were divided into three groups of n=6: control, low-dose (LD), and high-dose (HD). A single animal per dose group died immediately after dosing. Therefore, each group was left with n=5. No additional unanticipated mortality occurred for the duration of the experiment.
In brief, rats were first weighed then injected subcutaneously with 0.02 mL/kg body weight (BW) glycopyrrolate to inhibit oral secretions and facilitate insertion of an endotracheal tube. After 10-15 minutes, animals were anesthetized with 3-4% isoflurane in oxygen-enriched air (30% O2, 70% N2).
Other than the initial weight loss, no other outward signs of distress were observed.

[2] = system: lungs of live rats; test: Proton MRI (S0/T2 bivariate analysis) of lungs after intratracheal bleomycin instillation; format: in vivo, Sprague-Dawley rats
Description: In these experiments, three groups of Sprague-Dawley rats (n=5) were instilled intratracheally with bleomycin (2.5 U/kg or 3.5 U/kg) in saline or with saline only. Rats were imaged at 2.0 T using a multi-slice Carr-Purcell-Meilboom-Gill (CPMG) sequence with 6 ms echo spacing. Signal intensity (S0) and T2 were calculated on a pixel-by-pixel basis using images collected before dosing and 1, 2, 4, and 7 weeks after. At each time point, data from dosed animals were compared to controls, and bivariate statistical analysis was employed to classify image pixels containing abnormal tissue. At week 7, pulmonary function tests were performed, then all rats were sacrificed, left lungs were formalin fixed and tri-chrome stained for histological analysis of collagen content, and right lungs were used to measure water and hydroxyproline (collagen) content.
Animal handling and treatment procedures followed a protocol approved by the Institutional Animal Care and Use Committee. A total of 18 male Sprague-Dawley rats weighing 196±8 g were used. […]
MRI Analysis. Images were reconstructed using a standard 2D Fourier transform, then they were read into Mathematica 6.0 (Wolfgram Research, Champaign, Ill.) for further analysis. […] The mean background noise was measured from the first image of each stack. […]
Following segmentation, data for each rat at each time point were written to a columnar data file that contained S0, T2, slice number, and the corresponding pixel coordinates. […] A scatter plot of T2 (y-axis) vs. S0 (x-axis) was then generated to show the clustering of the data and the relationship between the measured parameters (for example, see FIG. 2A). Using a Mathematica script and bivariate statistical analysis, an ellipsoid was calculated that encircled ˜95% of the data points that were heretofore defined as “normal” lung with 95% confidence.
Each dosed animal was compared to the control group at the same time point, and data points within the ellipsoid were deleted as shown in FIG. 4B. The percentage of total pixels that were “abnormal” was calculated for each animal at each time point. […]

What does the source list for bleomycin sulfate?
breathing under anesthesia ([1]; 3.5 U/kg BW (HD), weeks 1, 2 and 4): struggle with breathing under anesthesia; body weight change ([1]; both dose groups (2.5 and 3.5 U/kg BW), first week): lost a significant amount of weight; response of the LD group ([2]; 2.5 U/kg BW intratracheal (LD), after the first two weeks of the study): very mild response; percentage of "abnormal" pixels vs control rats ([2]; 2.5 U/kg BW intratracheal (LD), by week 4): essentially indistinguishable from the control rats; response (fraction of "abnormal" pixels) compared with LD rats ([2]; 3.5 U/kg BW intratracheal (HD), throughout the experiment (7 weeks)): stronger response
